Drawing on patent publication US10508085B2, “Compounds and methods for IDO and TDO modulation, and indications therefor” (Plexxikon Inc., priority 2016, dated 2019), this text covers IC50 for 19 compounds.

A word on the IC50: it is the concentration that inhibits the measured activity by half.

Where only a bound is given, the exact number is not on record here.

Test [1] concerns the target T1, human TDO (TDO-expressing HEK293 cells) (Homo sapiens, UniProt P48775).
T1 construct: expressed in transfected cells
Kind of test: Cell based kynurenine assay, TDO-expressing HEK293 cell clones. The settings on record: TDO-expressing HEK293 cells, 24 hours incubation; geometric mean; read-out: HEK293 TDO Kynurenine GMean IC50 (μM) (Cellular Assay). Put shortly:
(§1)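 Stably transfected HEK293 clones expressing human IDO1 or TDO (CMV promoter) were seeded at 2.5×10^4 cells/well and treated with serially diluted compounds for 24 h. Supernatant kynurenine was then measured, and % inhibition versus DMSO-treated cell and media-only controls was fitted by nonlinear regression to give IC50.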

Test [2] deals with T2, Human Tryptophan 2,3-dioxygenase (TDO) (Homo sapiens, UniProt P48775).
T2 construct: His tag (N); made in house; host or cells: E. coli
T2 sequence (P48775 whole entry): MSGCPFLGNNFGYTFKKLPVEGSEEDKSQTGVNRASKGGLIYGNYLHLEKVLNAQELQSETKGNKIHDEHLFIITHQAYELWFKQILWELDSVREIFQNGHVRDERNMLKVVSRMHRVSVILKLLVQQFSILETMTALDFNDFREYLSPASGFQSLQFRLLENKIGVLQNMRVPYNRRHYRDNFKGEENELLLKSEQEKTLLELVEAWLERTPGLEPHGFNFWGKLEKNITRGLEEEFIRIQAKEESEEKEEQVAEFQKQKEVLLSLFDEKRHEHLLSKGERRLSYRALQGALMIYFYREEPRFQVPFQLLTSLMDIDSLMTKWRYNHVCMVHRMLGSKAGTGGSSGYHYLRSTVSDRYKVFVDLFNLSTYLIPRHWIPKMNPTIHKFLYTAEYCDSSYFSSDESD
Briefly: Human TDO enzymatic assay (kynurenine level). It counts as biochemical. The settings on record: 1 nM TDO, 350 μM L-Trp; geometric mean; read-out: TDO GMean: IC50 (μM) (Biochemical Assay). Put shortly: (§2)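 N-His human IDO (6 nM, 10 μM L-Trp, 5 μM methylene blue, 20 min) or TDO (1 nM, 350 μM L-Trp, 0.4 μM methylene blue, 70 min) run at room temp in pH 6.5 phosphate with ascorbate, catalase, Tween 20. TCA stop, 30 min 50 °C converts N-formylkynurenine to kynurenine; IC50 by nonlinear regression.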

Test [3] has as its target T3, human IDO (IDO1-expressing HEK293 cells) (Homo sapiens, UniProt P14902).
T3 construct: expressed in transfected cells
Kind of test: Cell based kynurenine assay, IDO1-expressing HEK293 cell clones. To be noted: IDO1-expressing HEK293 cells, 24 hours incubation; geometric mean; read-out: HEK293 IDO1 Kynurenine GMean IC50 (μM) (Cellular Assay). In outline:
as §1

For test [4], the target named is T4, Human Indoleamine 2,3-dioxygenase (IDO) (Homo sapiens, UniProt P14902).
T4 construct: His tag (N); made in house; host or cells: E. coli
T4 sequence (P14902 whole entry): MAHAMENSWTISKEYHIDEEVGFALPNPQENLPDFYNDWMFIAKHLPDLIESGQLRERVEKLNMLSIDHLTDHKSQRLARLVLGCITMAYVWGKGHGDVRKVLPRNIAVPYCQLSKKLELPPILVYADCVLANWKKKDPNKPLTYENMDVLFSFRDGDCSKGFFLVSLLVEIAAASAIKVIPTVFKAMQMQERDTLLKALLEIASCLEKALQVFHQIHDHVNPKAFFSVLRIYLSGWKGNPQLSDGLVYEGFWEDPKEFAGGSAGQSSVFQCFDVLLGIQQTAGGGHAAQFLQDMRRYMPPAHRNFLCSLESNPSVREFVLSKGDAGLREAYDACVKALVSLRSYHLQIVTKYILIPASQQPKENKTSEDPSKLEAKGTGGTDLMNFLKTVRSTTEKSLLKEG
Briefly: Human IDO enzymatic assay (kynurenine level). It is filed as biochemical. The settings on record: 6 nM IDO, 10 μM L-Trp; geometric mean; read-out: IDO1 GMean: IC50 (μM) (Biochemical Assay). In outline: as §2

T1 sequence (P48775 whole entry): as the sequence (P48775 whole entry) above
T3 sequence (P14902 whole entry): as the sequence (P14902 whole entry) above

Take `CC(C)(C1CCN(C2CCCC2)CC1)C(O)c1cc(Cl)cc2cn[nH]c12` (stereo not shown) [Compound P-0320, 1-(5-chloro-1H-indazol-7-yl)-2-(1-cyclopentylpiperidin-4-yl)-2-methylpropan-1-ol]: the 50% inhibitory concentration (IC50) in test [1], in test [2], in test [3] and in test [4] was 0.0001 to 10 µM throughout.

On to `COC(=O)N1CCC(C(C)(C)C(O)c2cc(Cl)cc3cn[nH]c23)CC1` (stereo not shown) [Compound P-0321, methyl 4-(1-(5-chloro-1H-indazol-7-yl)-1-hydroxy-2-methylpropan-2-yl)piperidine-1-carboxylate], for which the IC50 in test [1], in test [2], in test [3] and in test [4] was 0.0001 to 10 µM in each case.

As for `CCOC(=O)N1CCC(C(C)(C)C(O)c2cc(Cl)cc3cn[nH]c23)CC1` (stereo not shown) [Compound P-0322, ethyl 4-(1-(5-chloro-1H-indazol-7-yl)-1-hydroxy-2-methylpropan-2-yl)piperidine-1-carboxylate], the IC50 in test [1], in test [2], in test [3] and in test [4] was 0.0001 to 10 µM throughout.

Turning to `CC(C)OC(=O)N1CCC(C(C)(C)C(O)c2cc(Cl)cc3cn[nH]c23)CC1` (stereo not shown) [Compound P-0323, isopropyl 4-(1-(5-chloro-1H-indazol-7-yl)-1-hydroxy-2-methylpropan-2-yl)piperidine-1-carboxylate], the half-maximal inhibitory concentration (IC50) in test [1], in test [2], in test [3] and in test [4] was 0.0001 to 10 µM each time.

For `CC(C)(C1CCN(S(N)(=O)=O)CC1)C(O)c1cc(Cl)cc2cn[nH]c12` (stereo not shown) [Compound P-0324, 4-(1-(5-chloro-1H-indazol-7-yl)-1-hydroxy-2-methylpropan-2-yl)piperidine-1-sulfonamide], the half-maximal inhibitory concentration (IC50) in test [1], in test [2], in test [3] and in test [4] was 0.0001 to 10 µM each time.

On to `CC(C)(C1CCN(C(N)=O)CC1)C(O)c1cc(Cl)cc2cn[nH]c12` (stereo not shown) [Compound P-0325, 4-(1-(5-chloro-1H-indazol-7-yl)-1-hydroxy-2-methylpropan-2-yl)piperidine-1-carboxamide], for which the IC50 in test [1], in test [2], in test [3] and in test [4] was 0.0001 to 10 µM each time.

In the case of `COC(=O)C12CCC(C(O)c3cc(Cl)cc4cn[nH]c34)(CC1)CC2` (stereo not shown) [Compound P-0326, methyl 4-((5-chloro-1H-indazol-7-yl)(hydroxy)methyl)bicyclo [2.2.2]octane-1-carboxylate], the IC50 in test [1], in test [2], in test [3] and in test [4] was 0.0001 to 10 µM in each case.

With `O=C(O)C12CCC(C(O)c3cc(Cl)cc4cn[nH]c34)(CC1)CC2` (stereo not shown) [Compound P-0327, 4-((5-chloro-1H-indazol-7-yl)(hydroxy)methyl)bicyclo [2.2.2]octane-1-carboxylic acid], the IC50 in test [1], in test [2], in test [3] and in test [4] was 0.0001 to 10 µM in each case.

As to `OCC12CCC(C(O)c3cc(Cl)cc4cn[nH]c34)(CC1)CC2` (stereo not shown) [Compound P-0328, (5-chloro-1H-indazol-7-yl)(4-(hydroxymethyl)bicyclo[2.2.2]octan-1-yl)methanol], the IC50 in test [1], in test [2], in test [3] and in test [4] was 0.0001 to 10 µM in each case.

Regarding `COC(=O)N1CC2CCC(C1)C2CC(O)c1cc(Cl)cc2cn[nH]c12` (stereo not shown) [Compound P-0329, methyl 8-(2-(5-chloro-1H-indazol-7-yl)-2-hydroxyethyl)-3-azabicyclo [3.2.1]octane-3-carboxylate], the IC50 in test [1], in test [2], in test [3] and in test [4] was 0.0001 to 10 µM each time.

On to `CNS(=O)(=O)N1CCC(C(F)(F)C(O)c2cc(Cl)cc3cn[nH]c23)CC1` (stereo not shown) [Compound P-0330, 4-(2-(5-chloro-1H-indazol-7-yl)-1,1-difluoro-2-hydroxyethyl)-N-methylpiperidine-1-sulfonamide], for which the IC50 in test [1], in test [2], in test [3] and in test [4] was 0.0001 to 10 µM throughout.

Turning to `CCNS(=O)(=O)N1CCC(C(F)(F)C(O)c2cc(Cl)cc3cn[nH]c23)CC1` (stereo not shown) [Compound P-0331, 4-(2-(5-chloro-1H-indazol-7-yl)-1,1-difluoro-2-hydroxyethyl)-N-ethylpiperidine-1-sulfonamide], the concentration for half-maximal inhibition (IC50) in test [1], in test [2], in test [3] and in test [4] was 0.0001 to 10 µM each time.

For `CC(C)NS(=O)(=O)N1CCC(C(F)(F)C(O)c2cc(Cl)cc3cn[nH]c23)CC1` (stereo not shown) [Compound P-0332, 4-(2-(5-chloro-1H-indazol-7-yl)-1,1-difluoro-2-hydroxyethyl)-N-isopropylpiperidine-1-sulfonamide], the IC50 in test [1], in test [2], in test [3] and in test [4] was 0.0001 to 10 µM in each case.

For the compound `O=C(NCC(F)(F)F)N1CCC(C(F)(F)C(O)c2cc(Cl)cc3cn[nH]c23)CC1` (stereo not shown) [Compound P-0333, 4-(2-(5-chloro-1H-indazol-7-yl)-1,1-difluoro-2-hydroxyethyl)-N-(2,2,2-trifluoroethyl) piperidine-1-carboxamide], the IC50 in test [1], in test [2], in test [3] and in test [4] was 0.0001 to 10 µM each time.

As for `O[C@H](c1c(F)c(Cl)cc2cn[nH]c12)C12CCC(CC1)CC2` [Compound P-0334, (S)-bicyclo[2.2.2]octan-1-yl(5-chloro-6-fluoro-1H-indazol-7-yl)methanol], the concentration for half-maximal inhibition (IC50) in test [1], in test [2], in test [3] and in test [4] was 0.0001 to 10 µM each time.

For the compound `O[C@@H](c1c(F)c(Cl)cc2cn[nH]c12)C12CCC(CC1)CC2` [Compound P-0335, (R)-bicyclo[2.2.2]octan-1-yl(5-chloro-6-fluoro-1H-indazol-7-yl)methanol], the IC50 in test [1] is greater than 10 µM; in test [2], 0.0001 to 10 µM; in test [3] it was 0.0001 to 10 µM; in test [4], 0.0001 to 10 µM.

Regarding `OC1(c2cc(Cl)cc3[nH]ncc23)CC2(CCC2)C1` [Compound P-0336, 2-(6-chloro-1H-indazol-4-yl)spiro[3.3] heptan-2-ol], the IC50 in test [1] was 0.0001 to 10 µM; in test [2] it was 0.0001 to 10 µM; in test [3] it was greater than 10 µM; in test [4], 10 to 100 µM.

As for `CC(C)(C)OC(=O)N1CCC(C(C)(C)[C@H](O)c2cc(Cl)cc3cn[nH]c23)CC1` [Compound P-0337, tert-butyl (S)-4-(1-(5-chloro-1H-indazol-7-yl)-1-hydroxy-2-methylpropan-2-yl)piperidine-1-carboxylate], the IC50 in test [1], in test [2], in test [3] and in test [4] was 0.0001 to 10 µM each time.

On to `CC(C)(C)OC(=O)N1CCC(C(C)(C)[C@@H](O)c2cc(Cl)cc3cn[nH]c23)CC1` [Compound P-0338, tert-butyl (R)-4-(1-(5-chloro-1H-indazol-7-yl)-1-hydroxy-2-methylpropan-2-yl)piperidine-1-carboxylate], for which the IC50 in test [1] was 0.0001 to 10 µM; in test [2] it was 0.0001 to 10 µM; in test [3], greater than 10 µM; in test [4], 0.0001 to 10 µM.
